Data as given in publication PMC5701053, “Multicomponent mapping of boron chemotypes furnishes selective enzyme inhibitors” (Nature Communications, 2017).

Experiments:
[1] = molecular target: T1, α/β-hydrolase domain 3 (ABHD3) (Homo sapiens, UniProt Q8WU67); experiment: competitive gel-based ABPP (FP-rhodamine) in HEK […] lysate overexpressing human ABHD3; also in situ (IC50 […]) and ABPP-SILAC in SW620 cells; type: biochemical
T1 sequence (Q8WU67 1-409): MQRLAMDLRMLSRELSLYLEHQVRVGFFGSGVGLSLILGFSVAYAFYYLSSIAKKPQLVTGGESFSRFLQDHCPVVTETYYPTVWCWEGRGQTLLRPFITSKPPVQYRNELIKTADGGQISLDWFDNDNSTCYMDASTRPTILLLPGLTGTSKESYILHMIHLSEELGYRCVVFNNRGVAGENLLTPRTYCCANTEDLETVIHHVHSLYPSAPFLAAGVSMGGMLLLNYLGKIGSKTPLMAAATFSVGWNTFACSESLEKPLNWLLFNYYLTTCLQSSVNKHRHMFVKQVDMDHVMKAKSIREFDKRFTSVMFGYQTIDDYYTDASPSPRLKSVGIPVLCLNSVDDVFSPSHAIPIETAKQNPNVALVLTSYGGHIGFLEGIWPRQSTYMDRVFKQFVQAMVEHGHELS

[2] = molecular target: T1, α/β-hydrolase domain 3 (ABHD3); experiment: competitive gel-based ABPP (mouse brain proteome; follow-up in HEK […] lysates expressing ABHD3); type: cell-based

SMILES | IC50 [1] [nM] | competitive gel-based ABPP (mouse brain proteome); follow-up in HEK 293T lysates [2]
C[N+]12CC(=O)O[B-]1(CC(C#N)N(Cc1ccc(F)cc1Cl)C(=O)c1ccccc1)OC(=O)C2 (racemic) [4j] | 140 | –
Cc1ccc(CN(C(=O)c2ccccc2)C(C#N)C[B-]23OC(=O)C[N+]2(C)CC(=O)O3)cc1 (stereo not drawn) [4g] | – | Compound 4j appears equipotent with compounds 4h and 4g against ABHD3, but is more selective against ABHD10.
C[N+]12CC(=O)O[B-]1(CC(C#N)N(Cc1ccccc1Cl)C(=O)c1ccccc1)OC(=O)C2 (stereo not drawn) [4h] | – | Compound 4j appears equipotent with compounds 4h and 4g against ABHD3, but is more selective against ABHD10.
